Results taken from PMC8294059, “Identification and Immune Assessment of T Cell Epitopes in Five Plasmodium falciparum Blood Stage Antigens to Facilitate Vaccine Candidate Selection and Optimization” (Frontiers in Immunology, 2021).
Where a SMILES comes first, the peptide text is derived from it.

What follows are molecules tested against HLA-B*4402 (Homo sapiens, UniProt P01889, A223V/A65T/A93T/A95T/D201E/D98Y/E176V/E187L/E204Q/E69K/G107R/H137Y/K202T/L105A/L119I/N104T/N87E/Q56L/Q94N/R106L/R155S/R180D/S101N/S121R/S35A/S48T/T118I/V36M/W191S/Y140D/Y91S) (assay: In vitro class I HLA binding assay (fluorescence polarization competition)). Conditions: allele B*4402; fluorescence polarization competition.
Summary of the method: (§1)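 Cell-free competition assay: HLA heat-treated 53°C for 15 min to strip endogenous peptides, then mixed with fluorescent high-affinity control peptide and test peptides for 72 h to equilibrium. Displacement read by fluorescence polarization as percent inhibition; IC50 derived from a concentration range.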
With SECDIGLIY [RIPR_0611] the “IC50 (nM), in vitro HLA binding affinity” value was “Non-binder”.

Same assay, conditions: allele B*4402; fluorescence polarization competition; read-out: IC50 (nM), in vitro HLA binding affinity
CC[C@H](C)[C@H](N)C(=O)N[C@@H](CCC(=O)O)C(=O)N[C@H](C(=O)N[C@H](C(=O)N[C@@H](CCC(=O)O)C(=O)N[C@@H](CCCNC(=N)N)C(=O)N[C@@H](CO)C(=O)N[C@@H](CC(N)=O)C(=O)N[C@@H](Cc1ccc(O)cc1)C(=O)O)C(C)C)[C@@H](C)CC [AMA1_097] (H-IEIVERSNY-OH) showed an IC50 of 8030 nM. For CC(C)C[C@H](NC(=O)[C@H](CO)NC(=O)[C@H](CS)NC(=O)[C@@H]1CCCN1C(=O)[C@H](Cc1ccccc1)NC(=O)[C@H](CC(N)=O)NC(=O)[C@H](CC(N)=O)NC(=O)[C@H](CCC(=O)O)NC(=O)[C@@H](N)C(C)C)C(=O)N[C@@H](Cc1ccc(O)cc1)C(=O)O [AMA1_437] (H-VENNFPCSLY-OH), the IC50 was 6020 nM. In the case of CSCC[C@H](NC(=O)[C@H](CCC(=O)O)NC(=O)[C@@H](N)CC(=O)O)C(=O)N[C@@H](CC(C)C)C(=O)N[C@@H](CC(=O)O)C(=O)N1CCC[C@H]1C(=O)N[C@@H](CCC(=O)O)C(=O)N[C@@H](C)C(=O)N[C@@H](CO)C(=O)N[C@@H](Cc1ccccc1)C(=O)O [AMA1_593] (H-DEMLDPEASF-OH), the IC50 is reported as 11500 nM. For C[C@H](NC(=O)[C@H](CCCNC(=N)N)NC(=O)[C@H](CCCCN)NC(=O)[C@H](CCC(=O)O)NC(=O)[C@H](CCC(=O)O)NC(=O)CN)C(=O)N[C@@H](CO)C(=O)N[C@@H](Cc1c[nH]cn1)C(=O)N[C@H](C(=O)N[C@H](C(=O)O)[C@@H](C)O)[C@@H](C)O [AMA1_604] (H-GEEKRASHTT-OH), the IC50 was 10000 nM. Molecule CC[C@H](C)[C@H](NC(=O)[C@@H](NC(=O)[C@@H](NC(=O)[C@H](CCC(=O)O)NC(=O)[C@H](CO)NC(=O)[C@H](CC(N)=O)NC(=O)[C@H](CC(N)=O)NC(=O)[C@H](Cc1ccc(O)cc1)NC(=O)[C@H](CCC(=O)O)NC(=O)[C@@H](N)CCCCN)[C@@H](C)CC)[C@@H](C)O)C(=O)O [CYRPA_142] (H-KEYNNSEITI-OH) has an IC50 of 11000 nM. With CC[C@H](C)[C@H](NC(=O)[C@H](Cc1ccc(O)cc1)NC(=O)[C@H](CC(=O)O)NC(=O)[C@H](CO)NC(=O)[C@@H](NC(=O)[C@@H](NC(=O)[C@@H](NC(=O)[C@H](CCC(=O)O)NC(=O)[C@@H](N)CO)[C@@H](C)CC)[C@@H](C)O)[C@@H](C)CC)C(=O)O [CYRPA_147] (H-SEITISDYI-OH) the IC50 was 5380 nM. Molecule CC(C)C[C@H](N)C(=O)N[C@@H](CCC(=O)O)C(=O)N[C@@H](Cc1ccccc1)C(=O)N[C@H](C(=O)N[C@@H](CS)C(=O)N[C@@H](CO)C(=O)N[C@@H](CC(N)=O)C(=O)N[C@@H](CCCNC(=N)N)C(=O)N[C@@H](CC(=O)O)C(=O)N[C@@H](Cc1ccccc1)C(=O)O)C(C)C [CYRPA_264] (H-LEFVCSNRDF-OH) has an IC50 of 7460 nM. CC[C@H](C)[C@H](NC(=O)[C@H](CCCNC(=N)N)NC(=O)[C@H](CC(N)=O)NC(=O)[C@H](Cc1ccccc1)NC(=O)[C@@H](NC(=O)[C@H](Cc1c[nH]cn1)NC(=O)[C@H](CCCCN)NC(=O)[C@H](CCSC)NC(=O)[C@H](CCC(=O)O)NC(=O)[C@@H](N)CCCCN)[C@@H](C)CC)C(=O)O [RH5_415] (H-KEMKHIFNRI-OH) was tested, and the IC50 was 39200 nM. Work on CC[C@H](C)[C@H](NC(=O)[C@H](CCC(=O)O)NC(=O)[C@@H](N)CC(N)=O)C(=O)N[C@@H](CC(=O)O)C(=O)N[C@@H](CCCCN)C(=O)N[C@@H](CC(C)C)C(=O)N[C@H](C(=O)N[C@@H](Cc1ccccc1)C(=O)N[C@@H](CO)C(=O)N[C@@H](CC(C)C)C(=O)O)[C@@H](C)O [RIPR_0031] (H-NEIDKLTFSL-OH) yielded an IC50 of 332000 nM. Molecule CC(C)C[C@H](NC(=O)[C@H](Cc1ccc(O)cc1)NC(=O)[C@H](Cc1c[nH]cn1)NC(=O)[C@@H](NC(=O)[C@H](CC(C)C)NC(=O)[C@H](CO)NC(=O)[C@H](CCCCN)NC(=O)[C@H](CC(N)=O)NC(=O)[C@H](CCC(=O)O)NC(=O)[C@@H](N)Cc1ccc(O)cc1)[C@@H](C)O)C(=O)O [RIPR_0226] (H-YENKSLTHYL-OH) has an IC50 of 112000 nM. Molecule CC[C@H](C)[C@H](NC(=O)[C@H](CC(=O)O)NC(=O)[C@H](CCC(N)=O)NC(=O)[C@@H](NC(=O)[C@H](CS)NC(=O)[C@H](CCCNC(=N)N)NC(=O)[C@H](Cc1ccc(O)cc1)NC(=O)[C@H](CC(N)=O)NC(=O)[C@H](CCC(=O)O)NC(=O)[C@@H](N)CCC(=O)O)[C@@H](C)O)C(=O)O [RIPR_0283] (H-EENYRCTQDI-OH) has an IC50 of 674000 nM. Work on CC(C)C[C@H](NC(=O)[C@H](CC(N)=O)NC(=O)[C@H](CC(N)=O)NC(=O)[C@H](CCCCN)NC(=O)[C@H](Cc1ccc(O)cc1)NC(=O)[C@H](Cc1ccccc1)NC(=O)[C@H](CCCCN)NC(=O)[C@H](CCC(=O)O)NC(=O)[C@@H](N)CCCCN)C(=O)N[C@@H](Cc1ccc(O)cc1)C(=O)O [RIPR_0378] (H-KEKFYKNNLY-OH) yielded an IC50 of 919000 nM.

What follows are molecules tested against HLA-A*0101 (Homo sapiens, UniProt P04439, A114D/A174V/A182V/D101N/D185E/E176A/E190D/L180R/Q94H/R68K/S129P/T187R/V100A/V91M/W191G) (assay: biochemical). Conditions: allele A*0101; fluorescence polarization competition.
Type: binding
Summary of the method: as §1
For SECDIGLIY [RIPR_0611], the “IC50 (nM), in vitro HLA binding affinity” value was “Non-binder”.

These molecules were tested against HLA-A*0301 (Homo sapiens, UniProt P04439) (assay: biochemical). Conditions: allele A*0301; fluorescence polarization competition; read-out: IC50 (nM), in vitro HLA binding affinity.
Type: binding
Summary of the method: as §1
CC(C)C[C@H](NC(=O)[C@H](CO)NC(=O)[C@H](CS)NC(=O)[C@@H]1CCCN1C(=O)[C@H](Cc1ccccc1)NC(=O)[C@H](CC(N)=O)NC(=O)[C@H](CC(N)=O)NC(=O)[C@H](CCC(=O)O)NC(=O)[C@@H](N)C(C)C)C(=O)N[C@@H](Cc1ccc(O)cc1)C(=O)O [AMA1_437] (H-VENNFPCSLY-OH) was tested, and the IC50 was 85400 nM.
